The source of these data is US7585886B2, “Pyrrolidine derivative or salt thereof” (Astellas Pharma Inc., priority 2005, dated 2009).

Counter-ions that a name gives are not always drawn. Like-named read-outs stand apart in the source and are kept apart here.

In data set [1] the target is T1, CYP2D6 (Homo sapiens, UniProt P10635). The data set is described as follows: Human CYP2D6 inhibition test (fluorescence substrate AMMC). It counts as in vitro ADME. Details: purchased BD Gentest 456217. How it is done: Test 3. Human CYP2D6 Inhibition Test
Inhibitory activity evaluation for CYP2D6 was carried out by measuring it in accordance, roughly, with a reference (“Drug Metabolism and Disposition”, 2001, vol. 29, p. 1196-1200).
Final concentrations of the reagents in the enzyme reaction solution were respectively ser to CYP2D6=[…] (mfd. by BD Gentest, Cat. No.: 456217), reduced type nicotinamide adenine dinucleotide phosphate (NADPH) regeneration system (0.0081 mM nicotinamide adenine dinucleotide phosphate (NADP+), 0.41 mM glucose-6-phosphate, 0.41 mM MgCl2, […] glucose-6-phosphate dehydrogenase), and a fluorescence substrate AMMC=1.5 μM, 100 mM potassium phosphate buffer (pH 7.4). Each compound was made into a 50% acetonitrile solution and added to the enzyme reaction solution (acetonitrile final concentration 2.5%). The enzyme reaction was carried out at 37° C. for 30 minutes, the reaction was stopped using a stopping liquid (0.1 M tris(hydroxymethyl)aminomethane (Tris-base):acetonitrile=20:80), and then fluorescence intensity was measured. The concentration showing 50% inhibition (IC50) was calculated from the thus obtained fluorescence intensity, by defining the enzyme activity at the time of no compound addition as 100%.

In another data set the target is T2, human CaSR (Homo sapiens, UniProt P41180).
T2 construct: human CaSR open reading frame (ORF) was contained in the pcDNA3.1/Zeo(+) vector; expressed in transfected cells
T2 sequence (P41180 20-1078): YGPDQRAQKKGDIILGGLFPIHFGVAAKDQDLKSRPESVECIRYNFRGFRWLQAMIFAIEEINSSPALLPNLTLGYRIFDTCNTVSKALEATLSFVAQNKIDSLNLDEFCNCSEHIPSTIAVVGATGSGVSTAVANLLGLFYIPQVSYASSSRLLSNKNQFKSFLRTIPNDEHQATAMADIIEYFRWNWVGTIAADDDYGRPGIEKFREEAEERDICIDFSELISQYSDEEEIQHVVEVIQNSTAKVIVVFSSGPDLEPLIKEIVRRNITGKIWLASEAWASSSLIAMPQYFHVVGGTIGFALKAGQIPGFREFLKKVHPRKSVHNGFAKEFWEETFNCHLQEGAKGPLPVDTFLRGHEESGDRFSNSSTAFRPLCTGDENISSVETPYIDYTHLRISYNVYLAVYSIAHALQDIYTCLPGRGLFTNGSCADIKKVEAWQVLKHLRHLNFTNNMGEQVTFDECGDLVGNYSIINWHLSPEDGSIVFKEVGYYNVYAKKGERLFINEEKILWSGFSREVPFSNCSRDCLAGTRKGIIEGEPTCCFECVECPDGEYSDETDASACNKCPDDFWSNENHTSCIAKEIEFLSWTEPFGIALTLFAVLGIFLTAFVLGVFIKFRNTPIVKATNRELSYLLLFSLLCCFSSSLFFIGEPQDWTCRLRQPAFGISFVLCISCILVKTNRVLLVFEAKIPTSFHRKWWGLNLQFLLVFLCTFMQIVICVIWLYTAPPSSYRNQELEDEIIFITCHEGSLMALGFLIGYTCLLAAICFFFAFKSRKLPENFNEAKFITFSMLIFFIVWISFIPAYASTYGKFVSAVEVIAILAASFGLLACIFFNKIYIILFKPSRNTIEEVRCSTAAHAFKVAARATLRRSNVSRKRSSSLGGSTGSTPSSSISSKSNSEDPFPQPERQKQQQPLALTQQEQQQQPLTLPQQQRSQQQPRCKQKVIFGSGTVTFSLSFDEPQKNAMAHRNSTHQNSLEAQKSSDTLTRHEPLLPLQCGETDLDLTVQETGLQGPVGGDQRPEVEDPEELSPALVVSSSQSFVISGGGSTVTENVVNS
The data set is described as follows: Human calcium sensing receptor (CaSR) agonistic activity test (FLIPR, Fluo-3 intracellular Ca2+). Format: cell-based. An excerpt:
Test 1. Human Calcium Sensing Receptor (CaSR) Agonistic Activity Test
• 1) Preparation of Human CaSR Expression Vector
A DNA fragment coding for human CaSR was cloned in the standard method. Illustratively, using 203 to 2387 of NM_000388 as a DNA fragment D4, and 2210 to 3633 as a DNA fragment B2, they were amplified using a human kidney cDNA (mfd. by Invitrogen) as the template and using a DNA polymerase (a registered trade name: Pyrobest, mfd. by Takara Bio), and respectively cloned into a pCR2.1 vector using a pCR2.1-Topo vector (mfd. by Invitrogen). Next, DNA fragments prepared by digesting pCR2.1-D4 with SpeI and XbaI were inserted into the same sites of pcDNA3.1/Zeo(+) vector. Successively, the fragments prepared by digesting pCR2.1-B2 with SacI and XbaI were inserted into the SacI and XbaI sites of previously prepared pcDNA3.1/Zeo(+)-D4 (SpeI-XbaI), thereby obtaining a human CaSR expression vector pcDNA3.1/Zeo(+)-hCaSR in which human CaSR open reading frame (ORF) was contained in the pcDNA3.1/Zeo(+) vector. • 2) Preparation of Human CaSR Expression Cell
The human CaSR expression vector was transferred into HEK 293 cell using a transfection reagent (registered trademark: FuGene 6, mfd. by Roche Diagnostics). After the gene transfer, this was cultured in DMEM (mfd. by Invitrogen) medium containing 40 μg/ml Zeocin (registered trademark) (mfd. by Invitrogen) and 10% fetal bovine serum at 37° C. for 2 weeks in the presence of 5% CO2, thereby obtaining Zeocin-resistant clones. An human CaSR stably expressing HEK 293 clone was obtained from these clones by selection using the responsiveness to extracellular Ca^2+ as the index. • 3) Human CaSR Agonistic Activity Test
The HEK 293 cell stably expressing human CaSR was inoculated into a poly-D-lysine-coated black clear bottom 96 well plate (mfd. by BD Bioscience). Hanks' balanced salt solution (HBSS) (Ca^2+ (−), Mg^2+ (−), mfd. by Invitrogen) containing 20 mM HEPES (2-[4-(2-hydroxyethyl)-1-piperazinyl]ethanesulfonic acid) buffer (pH 7.4), 2.5 mM probenecid (mfd. by Sigma) and 0.1% bovine serum albumin was prepared as a washing buffer. After the inoculation and subsequent overnight culturing, the medium was discarded, the washing buffer supplemented with 1 mM CaCl2 and 10 μM Fluo-3 AM (trade name, mfd by DOJINDO) was added thereto in 100 μl per well portions, and then the incubation was carried out at 37° C. for 1Hour in the presence of 5% CO2. This was washed twice with 200 μl of the washing buffer, replaced by 100 μl of the washing buffer supplemented with 0.5 mM CaCl2 and allowed to stand still for 10 minutes, and then the responsiveness to each compound to be evaluated was detected using a plate reader for fluorometry image analysis use (registered trademark: FLIPR, mfd. by Molecular Devices). In this connection, the compound to be evaluated was used by optionally diluting with the washing buffer supplemented with 0.5 mM Ca^2+.
The human CaSR agonistic activity strength of each compound to be evaluated was calculated by defining the solvent group as 0% and the 2 mM Ca^2+ in final concentration group as 100%, and the compound concentration showing 50% activity (EC50) was calculated from a concentration-activity curve by the method of least squares.

Data set [2] in a line: Measurement of rat plasma calcium concentration after single oral administration. It counts as in vivo. Particulars: normal male rats, 3 mg/kg oral administration. How it is done: Test 2. Measurement of Rat Plasma Calcium Concentration and Plasma PTH Concentration
The compounds of the invention were administered to rats, and their influences upon the plasma calcium concentration and plasma PTH concentration were examined. The test was carried out by single oral administration of the compounds 5 or 6 normal male rats.
As a vehicle group, an MC solution prepared by adding 0.5% methyl cellulose (MC) solution or ethanol to a final concentration of 5% was administered at a dose of 5 ml/kg. As the comparative control, cinacalcet was dissolved in the MC solution and administered at a dose of 3 mg/kg. Each of the compounds, of the invention was dissolved or suspended the MC solution, or dissolved in ethanol and then diluted with the MC solution as occasion demands, and administered at a dose of 1, 3 or 10 mg/kg.
Blood samples were collected from the orbital venous plexus under ether anesthesia before the administration and 2Hours, 4Hours, or 8Hours in some cases, after the administration, and the plasma calcium concentration was measured using Calcium E-Test Wako (mfd. by Wako Pure Chemical Industries), and the plasma PTH concentration using Rat Intact PTH ELISA Kit (mfd. by Immutopics) or Rat Bioactive Intact PTH ELISA Kit (mfd. by Immutopics).

Data set [3] has as its target T1, CYP2D6. Particulars: reported, Non-patent Reference 4; cited from earlier work.
Where [4] appears, read: HEK 293 cell stably expressing human CaSR, 0.5 mM Ca2+ buffer, solvent group 0%, 2 mM Ca2+ group 100%, read-out: EC50 (compound concentration showing 50% activity), human CaSR agonistic activity.
The mark [5] stands for this setting: recombinant CYP2D6, AMMC 1.5 μM, 37° C. 30 minutes, read-out: IC50 (concentration showing 50% inhibition), CYP2D6.

T1 sequence (P10635 whole entry): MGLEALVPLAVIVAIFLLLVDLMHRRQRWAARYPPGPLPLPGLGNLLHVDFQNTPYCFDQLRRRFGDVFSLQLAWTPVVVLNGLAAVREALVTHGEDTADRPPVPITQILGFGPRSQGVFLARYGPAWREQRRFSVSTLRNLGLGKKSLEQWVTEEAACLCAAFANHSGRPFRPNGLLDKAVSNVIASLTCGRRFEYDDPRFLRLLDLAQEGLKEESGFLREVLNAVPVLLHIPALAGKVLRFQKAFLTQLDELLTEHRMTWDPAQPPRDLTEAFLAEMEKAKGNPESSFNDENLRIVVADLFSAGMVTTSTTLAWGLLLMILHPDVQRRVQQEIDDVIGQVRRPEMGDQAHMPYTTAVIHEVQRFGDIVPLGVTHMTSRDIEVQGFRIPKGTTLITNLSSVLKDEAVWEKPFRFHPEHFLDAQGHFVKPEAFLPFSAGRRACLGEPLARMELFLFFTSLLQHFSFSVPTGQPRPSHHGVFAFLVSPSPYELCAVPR

As to `C[C@@H](NC[C@H]1CN(c2c(F)cc(C(=O)O)cc2F)C[C@@H]1c1ccccc1)c1cccc2ccccc12` [Example 31, 3,5-difluoro-4-[(3S,4S)-3-({[(1R)-1-(1-naphthyl)ethyl]amino}methyl)-4-phenylpyrrolidin-1-yl]benzoic acid hydrochloride], the IC50 at 30 min on CYP2D6 [1] (human, recombinant CYP2D6 (BD Gentest, Cat. No. 456217), pH 7.4, probe AMMC 1.5 μM, recombinant CYP2D6, AMMC 1.5 μM, 37° C. 30 minutes, read-out: IC50 (concentration showing 50% inhibition), CYP2D6) is no less than 6000 nM. The EC50 on human CaSR (setting [4]) is 3.6 nM.

Consider `C[C@@H](NC[C@H]1CN(C(=O)Oc2ccc(C(=O)O)cc2)C[C@@H]1c1ccccc1)c1cccc2ccccc12.Cl` [Example 33, 4-({[(3S,4S)-3-({[(1R)-1-(1-naphthyl)ethyl]amino}methyl)-4-phenylpyrrolidin-1-yl]carbonyl}oxy)benzoic acid hydrochloride], for which, on human CaSR, the EC50 came out at 2.3 nM. Moreover, the “Rat plasma calcium concentration reducing ratio (%) 4 hours after administration” value in data set [2] was determined as 21%.

Regarding `C[C@@H](NC[C@H]1CN(C(=O)Nc2ccc(C(=O)O)cc2)C[C@@H]1c1ccccc1)c1cccc2ccccc12` [Example 41, 4-({[(3S,4S)-3-({[(1R)-1-(1-naphthyl)ethyl]amino}methyl)-4-phenylpyrrolidin-1-yl]carbonyl}amino)benzoic acid hydrochloride], the IC50 at CYP2D6 [1] (setting [5]) is no less than 6000 nM. Besides, the EC50 on human CaSR (setting [4]) stood at 4.9 nM.

As for `COc1cc(C(=O)O)ccc1NC(=O)N1C[C@H](CN[C@H](C)c2cccc3ccccc23)[C@@H](c2ccccc2)C1` [Example 45, 3-methoxy-4-({[(3S,4S)-3-({[(1R)-1-(1-naphthyl)ethyl]amino}methyl)-4-phenylpyrrolidin-1-yl]carbonyl}amino)benzoic acid hydrochloride], at CYP2D6 [1] (setting [5]), the IC50 is no less than 6000 nM. Further, at human CaSR (setting [4]), the EC50 was 3.1 nM.

Turning to `C[C@@H](NC[C@H]1CN(C(=O)CCCCC(=O)O)C[C@@H]1c1cccc(C(F)(F)F)c1)c1cccc2ccccc12` [Example 48, 6-{(3S,4S)-3-({[(1R)-1-(1-naphthyl)ethyl]amino}methyl)-4-[3-(trifluoromethyl)phenyl]pyrrolidin-1-yl}-6-oxohexanoic acid hydrochloride], on human CaSR (setting [4]), the EC50 worked out at 4 nM.

Regarding `C[C@@H](NC[C@H]1CN(C(=O)c2ccc(-c3ccsc3C(=O)O)o2)C[C@@H]1c1ccccc1)c1cccc2ccccc12` [Example 98], the IC50 at CYP2D6 [1] (setting [5]) was no less than 6000 nM. The EC50 at human CaSR (setting [4]) amounted to 5.2 nM.

Regarding `C[C@@H](NC[C@H]1CN(C(=O)CC(C)(C)CC(=O)O)C[C@@H]1c1ccccc1)c1cccc2ccccc12` [Example 109], the IC50 on CYP2D6 [1] (setting [5]) is no less than 6000 nM. Further, on human CaSR (setting [4]), the EC50 is 28 nM. The “Rat plasma calcium concentration reducing ratio (%) 4 hours after administration” value in data set [2] was 17%.

`C[C@@H](NC[C@H]1CN(c2ccc(-c3nnn[nH]3)cc2)C[C@@H]1c1ccccc1)c1cccc2ccccc12` [Example 130]: at human CaSR (setting [4]), the EC50 came out at 15 nM.

As to `Cc1cccc([C@H]2CN(c3c(F)cc(C(=O)O)cc3F)C[C@@H]2CN[C@H](C)c2cccc3ccccc23)c1` [Example 171], the EC50 on human CaSR (setting [4]) was determined as 16 nM. The “Rat plasma calcium concentration reducing ratio (%) 4 hours after administration” value in data set [2] is listed as 20%.

For the compound `C[C@@H](NC[C@H]1CN(C(=O)Oc2ccc(C(=O)O)cc2)C[C@@H]1c1cccc(F)c1)c1cccc2ccccc12` [Example 174], the EC50 at human CaSR is 3.4 nM.

On to `C[C@@H](NC[C@H]1CN(C(=O)Oc2ccc(C(=O)O)cc2)C[C@@H]1c1cccc(F)c1F)c1cccc2ccccc12` [Example 179], for which the IC50 on CYP2D6 [1] is no less than 6000 nM. The EC50 on human CaSR amounted to 0.77 nM.

In the case of `COc1cc(C(=O)O)ccc1NC(=O)N1C[C@H](CN[C@H](C)c2cccc3ccccc23)[C@@H](c2cccc(C)c2)C1` [Example 183], the IC50 on CYP2D6 [1] (setting [5]) is no less than 6000 nM. Further, the EC50 at human CaSR (setting [4]) came to 3.5 nM. Further, the “Rat plasma calcium concentration reducing ratio (%) 4 hours after administration” value in data set [2] is reported as 20%.

Take `C[C@@H](NCCCc1cccc(C(F)(F)F)c1)c1cccc2ccccc12` [cinacalcet]: on CYP2D6 [3], the “activity to inhibit CYP2D6 (in words)” value was “strong activity to inhibit CYP2D6”.

Turning to `CC(NC[C@H]1CN(C(=O)Oc2ccc(C(=O)O)cc2)C[C@@H]1c1ccccc1)c1csc2ccccc12` (stereo partly shown) [compound 53], the EC50 on human CaSR (setting [4]) worked out at 5.2 nM.
